According to patent US20230348362A1, “LIPID COMPOUNDS AND LIPID NANOPARTICLE COMPOSITIONS” (Suzhou Abogen Biosciences Co., Ltd., priority 2021, published 2023):

Experiments:
[1] = Lipid nanoparticle size and polydispersity by dynamic light scattering; type: physicochemical; details: LNP of lipid/DSPC/cholesterol/PEG-lipid 50:10:38.5:1.5 encapsulating hEPO mRNA
Description: (§1) Briefly, a cationic lipid provided herein, DSPC, cholesterol, and PEG-lipid were solubilized in ethanol at a molar ratio of 50:10:38.5:1.5, and mRNA were diluted in 10 to 50 mM citrate buffer, pH=4. The LNPs were prepared at a total lipid to mRNA weight ratio of approximately 10:1 to 30:1 by mixing the ethanolic lipid solution with the aqueous mRNA solution at a volume ratio of 1:3 using a microfluidic apparatus, total flow rate ranging from 9-30 mL/min. Ethanol were thereby removed and replaced by DPBS using dialysis. Finally, the lipid nanoparticles were filtered through a […] sterile filter.
(§2) Lipid nanoparticle size were determined by dynamic light scattering using a Malvern Zetasizer Nano ZS (Malvern UK) using a […] backscatter detection mode. The encapsulation efficiency of lipid nanoparticles were determined using a Quant-it Ribogreen RNA quantification assay kit (Thermo Fisher Scientific, UK) according to the manufacturer's instructions.

[2] = Encapsulation efficiency of lipid nanoparticles, Quant-it Ribogreen RNA assay; type: physicochemical; details: LNP of lipid/DSPC/cholesterol/PEG-lipid 50:10:38.5:1.5 encapsulating hEPO mRNA
Description: as §1, §2

Compound | polydispersity [1] | size (nm) [1] | Encapsulation Efficiency [2]
CCCCCCCCCCCOC(=O)CCCCCN1CCC(N(CCO)CCCCCCCC(=O)OC(CCCCCCCC)CCCCCCCC)CC1 [Compound 174] | 0.063 | 78.27 nm | 91.79%
CCCCCCCCC(CCCCCCCC)CNC(=O)CCCCCN(CCO)CCN(CCCCCC(=O)NCC(CCCCCCCC)CCCCCCCC)C1CCC1 [Compound 11] | 0.055 | 66.15 nm | 82.8%
CCCCCCCCC(CCCCCCCC)CNC(=O)CCCCCN(CCO)CCN(CCCCCC(=O)NCC(CCCCCCCC)CCCCCCCC)C1CCCCCC1 [Compound 14] | 0.118 | 60.06 nm | 89.8%
CCCCCCCCC(CCCCCC)CNC(=O)CCN(CCO)CCN(CCCCC(COC(=O)CCCCCCC)COC(=O)CCCCCCC)C1CCCCCCC1 (stereo not drawn) [Compound 213] | 0.07 | 110.8 nm | 88.38%
CCCCCCCC(=O)OCC(CCCCN(CCO)CCN(CCCCC(COC(=O)CCCCCCC)COC(=O)CCCCCCC)C1CCCCCC1)COC(=O)CCCCCCC [Compound 160] | 0.096 | 86.16 nm | 86.18%
CCCCCCCCC(CCCCCCCC)CNC(=O)CCCCCN1CCC(N(CCO)CCCCCC(=O)OCC(CCCCCCCC)CCCCCCCC)CC1 [Compound 171] | 0.076 | 76.26 nm | 96.23%
CCCCCCCCC(CCCCCC)C(=O)OCCCCCCN(CCO)CCN(CCCCCCOC(=O)C(CCCCCC)CCCCCCCC)C1CCC1 (stereo not drawn) [Compound 69] | 0.096 | 60.99 nm | 88.86%
CCCCCCCCC(CCCCCCCC)COC(=O)CCCCCN(CCO)Cc1ccc(CN(CCCCCC(=O)OCC(CCCCCCCC)CCCCCCCC)C2CCC2)cc1 [Compound 88] | 0.080 | 71.00 nm | 92.56%
CCCCCCCCC(CCCCCC)CNC(=O)CCCCCN(CCCCN(CCO)CCCCC(COC(=O)CCCCCCC)COC(=O)CCCCCCC)C1CCCCC1 (stereo not drawn) [Compound 197] | 0.158 | 70.01 nm | 91.45%
CCCCCCCCCCCOC(=O)CCOCCN(CCN(CCO)CCOCCC(=O)OCC(CCCCCCCC)CCCCCCCC)C1CCCCC1 [Compound 117] | 0.050 | 79.67 nm | 89.34%
CCCCCCCCCOC(=O)CCCCCCCN(CCO)C1CCN(CCCCCCCC(=O)OC(CCCCCCCC)CCCCCCCC)CC1 [Compound 176] | 0.123 | 65.70 nm | 95.27%
CCCCCCCCC(CCCCCC)CNC(=O)CCN(CCO)CCN(CCCCC(COC(=O)CCCCCCC)COC(=O)CCCCCCC)C1CCCCC1 (stereo not drawn) [Compound 211] | 0.035 | 112.6 nm | 84.88%
CCCCCCCCCCCCCCOCC(CN(CCN(CCO)CCCCCC(=O)OCC(CCCCCCCC)CCCCCCCC)C1CCC1)OCCCCCCCC (stereo not drawn) [Compound 20] | 0.015 | 74.98 nm | 95.8%

More lines, now with the values ahead:

polydispersity [1] | size (nm) [1] | Encapsulation Efficiency [2] | Compound
0.035 | 90.98 nm | 92.89% | CCCCCCCCCCCOC(=O)CCCCCN(CC=C(C)C)CCN(CCCCCC(=O)OCC(CCCCCCCC)CCCCCCCC)C1CCC(O)CC1 (stereo not drawn) [Compound 125]
0.060 | 76.86 nm | 91.06% | CCCCCCCCCCCOC(=O)CCCCCN(CCN(CCO)CCCCCC(=O)OCC(CCCCCCCC)CCCCCCCC)C1CCCC1 [Compound 130]
0.043 | 78.75 nm | 92.71% | CCCCCCCCC(CCCCCC)CNC(=O)CCCCCN(CC=C(C)C)CCN(CCO)CCCCC(COC(=O)CCCCCCC)COC(=O)CCCCCCC (stereo not drawn) [Compound 149]
0.044 | 66.62 nm | 92.43% | CCCCCCCCCCCCCCCCOC(=O)CCCCCN(CCN(CCO)CCCCCC(=O)OCC(CCCCCCCC)CCCCCCCC)C1CCCCC1 [Compound 104]
0.089 | 101.6 nm | 87.7% | CCCCCCCCCCCOC(=O)CCCCCN(CCN(CCO)CCCCCC(=O)OCC(CCCCCC)CCCCCCCC)C1CCCCC1 (stereo not drawn) [Compound 6]
0.042 | 91.85 nm | 89.31% | CCCCCCCCCCCC(=O)OCCCCCN(CCN(CCO)CCOCCOC(=O)CC(CCCCCCCC)CCCCCCCC)C1CCCCC1 [Compound 98]
0.081 | 64.31 nm | 90.40% | CCCCCCCCC(CCCCCC)COC(=O)CCCCCN(CC=C(C)C)CCN(CCO)CCCCC(COC(=O)CCCCCCC)COC(=O)CCCCCCC (stereo not drawn) [Compound 148]
0.044 | 81.25 nm | 90.35% | CCCCCCCCCCCOC(=O)CCCCCN(CCN(CCO)CCOCCC(=O)OCC(CCCCCCCC)CCCCCCCC)C1CCC1 [Compound 114]
0.068 | 82.68 nm | 85.46% | CCCCCCCC(=O)OCC(CCCCN(CC=C(C)C)CCN(CCO)CCCCC(COC(=O)CCCCCCC)COC(=O)CCCCCCC)COC(=O)CCCCCCC [Compound 162]
0.067 | 67.63 nm | 92.14% | CCCCCCCCCCCOC(=O)CCCCCN(CCN(CCO)CCCCCC(=O)OCC(CCCCCCCC)CCCCCCCC)C1CCC1 [Compound 106]
0.051 | 71.01 nm | 89.74% | CCCCCCCCC(CCCCCC)CNC(=O)CCCCCN(CCO)CCN(CCCCC(COC(=O)CCCCCCC)COC(=O)CCCCCCC)C1CCCCC1 (stereo not drawn) [Compound 140]
0.087 | 69.75 nm | 92.21% | CCCCCCCCCCCOC(=O)CCCCCN(CC=C(C)C)CCN(CCO)CCCCCC(=O)OCC(CCCCCCCC)CCCCCCCC [Compound 119]
0.181 | 55.12 nm | 93.9% | CCCCCCCCC(CCCCCC)COC(=O)CCCCCN(CCO)CCN(CCCCCC(=O)OCC(CCCCCC)CCCCCCCC)C1CC1 (stereo not drawn) [Compound 9]
0.190 | 73.36 nm | 89.69% | CCCCCCCCC(CCCCCC)COC(=O)CCCCCN(C)CCN(CCO)CCCCC(COC(=O)CCCCCCC)COC(=O)CCCCCCC (stereo not drawn) [Compound 156]
0.066 | 64.03 nm | 86.6% | CCCCCCCCCCCCC(O)CN(CCCCCC(=O)OCC(CCCCCC)CCCCCCCC)CCN(CCCCCC(=O)OCCCCCCCCCCC)C1CCC1 (stereo not drawn) [Compound 2]
0.047 | 87.7 nm | 95.5% | CCCCCCCCCCCOC(=O)CCCCCN(CCN(CCO)CCCCCC(=O)OCC(CCCCCCC)CCCCCCC)C1CCCCC1 [Compound 22]
0.035 | 124.60 nm | 87.16% | CCCCCCCCC(CCCCCC)COC(=O)CCCCCN(CCO)CCN(CCCCC(COC(=O)CCCCCCC)COC(=O)CCCCCCC)C1CCC1 (stereo not drawn) [Compound 135]
